This note sets out measurements from ChEMBL document CHEMBL1158536, “How well can the Caco-2/Madin-Darby canine kidney models predict effective human jejunal permeability?” (J Med Chem, 2010).

Data set [1] is described as follows: Absolute bioavailability in human. It is filed as ADME, organism-based. The following applies: in vivo.
The conditions of data set [2]: caco-2.
The nature of the next data set: clinical. The settings on record: human.
Data set [3] can be described thus: Octanol-water partition coefficient, log P of the compound. Format: physicochemical.
Data set [4] is described as follows: Dissociation constant, pKa of the compound. Format: physicochemical.
The conditions of data set [5]: human.

As to `CC(C)[C@H](N)C(=O)OCCOCn1cnc2c(=O)[nH]c(N)nc21` [VALACYCLOVIR], the bioavailability (in general, dose-corrected exposure relative to a reference, in per cent) in data set [1] is 80%. For the same compound, the Daq in data set [2] is reported as 7.2 ×10⁻⁶ cm2/s. The Papp (commonly a coefficient for how fast a substance crosses the barrier) in “clinical” is 166 ×10⁻⁶ cm/s. Moreover, the logP (in general, the decadic logarithm of the partition coefficient of the neutral form, usually between octanol and water) in data set [3] (read-out: logP) was -1.04. For the same compound, the pKa (in general, the negative logarithm of the acid dissociation constant) in data set [4] stood at 7.4.

With `C[C@](N)(Cc1ccc(O)c(O)c1)C(=O)O` [METHYLDOPA], in data set [1], the bioavailability turned out to be 26%. In data set [2], this compound showed a Daq of 8.8 ×10⁻⁶ cm2/s. For the same compound, the Papp in “clinical” amounted to 10 ×10⁻⁶ cm/s. Besides, in data set [3] (read-out: logP), the logP was -3. In addition, the pKa in data set [4] is 2.21.

In data set [1], `NCCCC[C@H](N[C@@H](CCc1ccccc1)C(=O)O)C(=O)N1CCC[C@H]1C(=O)O` [LISINOPRIL ANHYDROUS] gave a bioavailability of 27%. Also, the logP in data set [3] (read-out: logP) was -2.86. This compound also gave a pKa in data set [4] of 3.16.

In data set [1], `NC(CO)C(=O)NNCc1ccc(O)c(O)c1O` (centres undefined) [BENSERAZIDE] came in with a bioavailability of 70%. In data set [2], this compound came in with a Daq of 8 ×10⁻⁶ cm2/s. In “clinical”, this compound came in with a Papp of 290 ×10⁻⁶ cm/s. The logP in data set [3] (read-out: logP) was -1.78. In data set [4], this compound showed a pKa of 6.19.

In the case of `CCOC(=O)[C@H](CCc1ccccc1)N[C@@H](C)C(=O)N1CCC[C@H]1C(=O)O`, the bioavailability in data set [1] came out at 51%. Moreover, the Daq in data set [2] amounted to 6.7 ×10⁻⁶ cm2/s. The compound also returned a Papp in “clinical” of 157 ×10⁻⁶ cm/s. The lipophilicity (logP) in data set [3] (read-out: logP) is -1.39. Also, the pKa in data set [4] was 2.92.

The compound `CC(=O)Nc1ccc(O)cc1` [ACETAMINOPHEN] came in with a bioavailability in data set [1] of 85%. Moreover, in data set [5], the permeability came out at 1.76 ×10⁻⁴ cm/s. Also, in data set [2], the Daq is given as 10.2 ×10⁻⁶ cm2/s. This compound returned a pKa in data set [4] of 9.63.

As for `C[S+]([O-])CCCCN=C=S` (centres undefined) [SULFORAPHANE], in data set [1], the bioavailability turned out to be 74%. In data set [5], this compound yielded a permeability of 18.7 ×10⁻⁴ cm/s. In data set [2], the Daq is listed as 9.5 ×10⁻⁶ cm2/s. Also, the logP in data set [3] (read-out: logP) was 1.68.

Take `CCCCc1nc(Cl)c(CO)n1Cc1ccc(-c2ccccc2-c2nn[nH]n2)cc1` [LOSARTAN]: the bioavailability in data set [1] turned out to be 50%. This compound also came in with a Daq in data set [2] of 6.4 ×10⁻⁶ cm2/s. Also, the Papp in the data set “clinical” turned out to be 114 ×10⁻⁶ cm/s. Further, the logP in data set [3] (read-out: logP) was 3.74. In data set [4], the pKa is 2.95.

Take `O=c1c(O[C@@H]2O[C@H](CO)[C@@H](O)[C@H](O)[C@H]2O)c(-c2ccc(O[C@@H]3O[C@H](CO)[C@@H](O)[C@H](O)[C@H]3O)c(O)c2)oc2cc(O)cc(O)c12`: the bioavailability in data set [1] turned out to be 60%. Further, the Daq in data set [2] is 6.1 ×10⁻⁶ cm2/s. Further, in “clinical”, the Papp was determined as 890 ×10⁻⁶ cm/s. Moreover, the logP in data set [3] (read-out: logP) was 3.24. The same compound yielded a pKa in data set [4] of 6.9.

In turn, `CN1CC(=O)NC1=N` [CREATININE] yielded a bioavailability in data set [1] of 80%. For the same compound, in data set [2], the Daq was determined as 11.6 ×10⁻⁶ cm2/s. The compound further had a Papp in the data set “clinical” of 29 ×10⁻⁶ cm/s. In addition, the logP in data set [3] was -3. Moreover, the pKa in data set [4] is 4.66.

For the compound `CC(C)(C)NCC(O)c1cc(O)cc(O)c1` (centres undefined) [TERBUTALINE], the Daq in data set [2] came out at 8.5 ×10⁻⁶ cm2/s. The Papp in “clinical” came out at 30 ×10⁻⁶ cm/s. The logP in data set [3] (read-out: logP) is -0.08. The pKa in data set [4] is 8.67.

`N[C@@H](Cc1ccc(O)c(O)c1)C(=O)O` [LEVODOPA] displayed a bioavailability in data set [1] of 100%. In data set [2], the Daq was determined as 9 ×10⁻⁶ cm2/s. The Papp in “clinical” was 340 ×10⁻⁶ cm/s. Moreover, in data set [3] (read-out: logP), the logP is -3. In data set [4], this compound returned a pKa of 2.21.

As for `Cc1cc(=O)n(-c2ccccc2)n1C` [ANTIPYRINE], the bioavailability in data set [1] was found to be 99%. The compound further gave a permeability in data set [5] of 2.07 ×10⁻⁴ cm/s. This compound also yielded a Daq in data set [2] of 9.2 ×10⁻⁶ cm2/s. In data set [4], this compound returned a pKa of 1.3.
